The term IC50 denotes the midpoint of a concentration-inhibition curve.

The values that follow come from article PMC12457637, “An aptamer-drug conjugate for promising cancer therapy with comprehensive evaluation from rodents to non-human primates” (Signal Transduction and Targeted Therapy, 2025).

What all share (format): cell-based
One test relates to HT-29 cells. Briefly: 72-h cytotoxicity (MTS), HT-29. To be noted: HT-29, 72 h. How it is done:
(§1) Cells were seeded in wells of a 96-well plate (6000 cells/well) and incubated overnight to allow for cell adherence. On the second day, 100 μL complete medium containing VcMMAE and Sgc8c-M (400, 200, 100, 50, 25, 12.5, and 6.25 nM), as well as MMAE (5, 2.5, 1.25, 0.625, 0.3125, 0.15625, and 0.078125 nM), were added to wells of a 96-well plate for an additional 72-h incubation at 37 °C. At the end of incubation, 100 μL of CellTiter 96® Aqueous One Solution Cell Proliferation Assay (MTS, Promega) solution (prepared by mixing 2 mL MTS with 9 mL of complete medium) were added to each well. The plates were then incubated for an additional 1–2 h to allow for the formation of formazan crystals. The absorbance of each well was measured at 490 nm using a Multi-Mode Microplate Reader (TECAN, SPARK) to assess cell viability. Cell viability was calculated as [OD490 (treatment) - OD490 (blank)]/[OD490 (nontreatment) - OD490 (blank)] × 100%.

A further test deals with OVCAR3 cells. The experiment in a line: 72-h cytotoxicity (MTS), OVCAR3. To be noted: OVCAR3, 72 h. How it is done:
as §1

The next test relates to MIA PaCa-2 cells. The experiment in a line: 72-h cytotoxicity (MTS), MIA PaCa-2. To be noted: MIA PaCa-2, 72-h incubation. How it is done: as §1

Starred links: 1 amine or outer side, 2 acyl side, 3 side chain; linkers in the order of their positions; H or OH if unused. Non-standard residues stand in square brackets, D forms with d. Residues, ends and D or L forms follow the SMILES beside them. *: point of attachment. Dolaproine = CO[C@@H]([C@@H]1CCCN1)[C@@H](C)C(=O)O; Hexanoyl(6-maleimido) = O=C1C=CC(=O)N1CCCCCC(=O)*; Dil = CC[C@H](C)[C@H](NC)[C@@H](CC(=O)O)OC; PABC = O=C(OCc1ccc(N[*:1])cc1)[*:2]; X1 = C[C@@H](N*)[C@@H](O)c1ccccc1; Cit = NC(=O)NCCC[C@H](N)C(=O)O; NMeV = CN[C@H](C(=O)O)C(C)C

For `CC[C@H](C)[C@@H]([C@@H](CC(=O)N1CCC[C@H]1[C@H](OC)[C@@H](C)C(=O)N[C@H](C)[C@@H](O)c1ccccc1)OC)N(C)C(=O)[C@@H](NC(=O)[C@H](C(C)C)N(C)C(=O)OCc1ccc(NC(=O)[C@H](CCCNC(N)=O)NC(=O)[C@@H](NC(=O)CCCCCN2C(=O)C=CC2=O)C(C)C)cc1)C(C)C` [VcMMAE, MC-VC-PAB-MMAE] ({Hexanoyl(6-maleimido)}-V[Cit][PABC][NMeV]V[Dil][Dolaproine]-X1), the results for the IC50 with HT-29 cells, in the test with OVCAR3 cells and with MIA PaCa-2 cells were 203 nM, 105 nM and 187 nM, respectively.
